Entries after “also recorded” stand apart in the source; their conditions may differ. One block for each molecule: values may come before it.
Experiments:
TGase 1 = target: T1, TGase 1 (Homo sapiens, UniProt P22735); experiment: Lipid Z esterification of involucrin by TGase 1 on SLV; format: biochemical; conditions: for involucrin-lipid adduct formation by TGase 1 on SLV membranes: ceramide incorporated in SLV
T1 construct: Recombinant full-length human TGase 1 and TGase 3 enzymes were expressed in Sf9 cells by the BaculoGold system; made in house; host or cells: Sf9 insect cells, BaculoGold baculovirus system, pVL1392 vector
T1 sequence (P22735 1-817): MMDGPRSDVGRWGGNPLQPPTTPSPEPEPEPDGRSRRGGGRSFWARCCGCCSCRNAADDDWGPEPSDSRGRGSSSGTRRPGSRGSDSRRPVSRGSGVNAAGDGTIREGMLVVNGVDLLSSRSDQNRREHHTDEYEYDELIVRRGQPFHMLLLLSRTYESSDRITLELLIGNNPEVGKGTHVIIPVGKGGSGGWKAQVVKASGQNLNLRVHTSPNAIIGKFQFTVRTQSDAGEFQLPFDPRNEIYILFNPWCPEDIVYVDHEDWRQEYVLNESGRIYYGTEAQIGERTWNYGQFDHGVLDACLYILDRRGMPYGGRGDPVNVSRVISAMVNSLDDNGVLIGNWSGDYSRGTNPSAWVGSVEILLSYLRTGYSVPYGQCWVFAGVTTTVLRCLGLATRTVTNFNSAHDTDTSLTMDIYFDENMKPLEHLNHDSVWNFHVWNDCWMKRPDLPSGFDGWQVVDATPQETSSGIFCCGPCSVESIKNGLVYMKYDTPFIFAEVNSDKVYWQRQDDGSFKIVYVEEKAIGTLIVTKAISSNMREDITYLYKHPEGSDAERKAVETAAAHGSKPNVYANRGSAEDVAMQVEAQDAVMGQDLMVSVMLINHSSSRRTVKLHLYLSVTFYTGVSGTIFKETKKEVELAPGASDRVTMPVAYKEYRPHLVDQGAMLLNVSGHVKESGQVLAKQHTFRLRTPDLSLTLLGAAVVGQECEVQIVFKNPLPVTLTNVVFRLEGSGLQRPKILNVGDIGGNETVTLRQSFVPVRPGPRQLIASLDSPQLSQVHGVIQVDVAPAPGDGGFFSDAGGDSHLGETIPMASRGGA
Protocol: A mixture of 54 mol % dimyristoyl-phosphatidylcholine, 15 mol % dipalmitoyl-phosphatidylserine, 30 mol % cholesterol (all from Sigma, St. Louis, Mo.) and 1 mol % lipid Z was made in chloroform: methanol (9:1). This solution was dried down, taken up in aqueous buffer and dispersed by sonication as before (Nemes et al., J. Biol. Chem., 274: in press (1999)). The SLV suspension was equipped with TGase 1 enzyme by incubation at 37° C. for 15 min prior to adding substrates.
The reactions were stopped by the addition of EDTA to 10 mM.
Following reaction, 0.1 ml 20% SDS in water was added to the samples and the mixture was vortexed. This mixture was precipitated and washed three times with acetone-triethylamine-acetic acid (90:5:5) to remove the SDS and the unbound lipids (Konigsberg, W. H. and L. Henderson, Meth. Enzymol., 91: 254-259 (1983), herein expressly incorporated by reference in its entirety). After further washing with acetone the pellet was dried under vacuum and redissolved in 50 mM Tris-HCl (pH 7.5). Resolubilized protein was digested for 16 h with 2 mol % modified trypsin (Boehringer Mannheim). Peptides were resolved on a 250×2 mm PrimesphereC4 HPLC column (Phenomenex) and separated using a gradient elution from 75% buffer A (0.1% TFA in water) to 75% buffer B (50% 2-propanol in acetonitrile) in 40 min. Under these conditions, lipo-peptides were retarded but free peptides elute with the solvent front (Marekov, L. N. and P. M. Steinert, J. Biol. Chem., 273: 17763-17770 (1998), herein expressly incorporated by reference in its entirety).
Amino acid analysis of hydrolyzed samples (5.7 N HCl at 110° C. for 24 h in vacuo) was used to routinely measure amounts of lipo-peptides. Aliquots of isolated lipo-peptide peaks were attached to a solid support for sequencing (Marekov, L. N. and P. M. Steinert, J. Biol. Chem., 273: 17763-17770 (1998), herein expressly incorporated by reference in its entirety). Saponification of lipo-peptides was done with 1 N KOH in 80% methanol for 2 h at 37° C., after which the solution was acidified, dried and peptides were recovered by HPLC on a C18 column.

[1] = test system: synthetic lipid vesicles (SLV); experiment: Membrane association (binding) to synthetic lipid vesicles, SLV pelleted by ultracentrifugation; conditions: for effect on involucrin binding to SLV when substituted for PS: SLV containing 8% PS plus 0-20% of the anionic phospholipid; for effect on Ca++-induced binding of involucrin to SLVs: added to buffer, SLVs with 15 mol % PS; for binding to SLV: SLV with 0 or 15% PS, with or without free Ca++
Protocol: Mixtures of dipalmitoyl-phosphatidylcholine, cholesterol, dipalmitoyl-phosphatidylserine (PS) and other lipids where indicated (all from Sigma, St. Louis, Mo.) were made in chloroform-methanol (95:5). In all cases, the mixtures contained 30% cholesterol. When the amounts of PS or other individual components were varied, phosphatidylcholine was added to make the mixture to 100%. Mixtures were made in 0.5 ml and contained 10 μmol of total lipids. The solvent was flushed away under a stream of N2, dried further under high vacuum for 4 h and then resuspended by vortexing in 0.5 ml of a buffer containing 50 mM Tris-Cl (pH 8.0), 100 mM NaCl, 3 mM NaN3, 5 mM DTT, and 200 mM sucrose. The mixture was sonicated on ice five times each for 1 min using a Branson 250 sonifier with micro probe tip, and allowed to stand at 23° C. to facilitate assembly of SLV. After 1 h the SLV were diluted with 0.5 ml of the above buffer without sucrose, and 200 μl aliquots were centrifuged at 100,000× g for 30 min in a Beckman Airfuge using the A-10 rotor. The top 175 μl was removed, and the pellet resuspended in another 150 μl of sucrose-free buffer. The final stock concentration was 11 μmol/ml.
In all cases, the buffer contained 50 mM Tris-HCl (pH 8.0), 100 mM NaCl, 1 mM DTT, 3 mM NaN3, and other additives where noted. Some mixtures also contained 1 mM CaCl2 or 2 mM EDTA. After mixing, the samples were centrifuged for 45 min at 100,000× g, and the protein content from 50 μl of supernatant was determined by amino acid analysis after acid hydrolysis. Data were usually not corrected for loss of SLV lipids, as in control experiments, cumulated losses were <4% as assayed by ^14C-phosphatidylcholine tracer, and thus neglected from the calculations.
The Ca^++ concentrations in the μM range were set by buffering free Ca^++ with chelators The desired Ca^++/chelator ratios were calculated by the WinMaxC 1.7 computer program (Bers, et al., Methods in Cell Biology Vol 40: A Practical Guide to the Study of Ca^2+ in Living Cells, Nuccitelli, R., ed., pp. 1-327 (1994), herein expressly incorporated by reference in its entirety), and were made by adding the required amounts of 1 M CaCl2 to 0.2 M stock solutions of the following chelators at pH 8.0. Final chelator concentrations in the samples were 10 mM in all cases. Sodium citrate was the chelator for the 20-500 μM Ca^++ range; sodium nitrilotriacetate for the 1-20 μM Ca^++ range; and sodium 1,2-bis(aminophenoxy)ethane-N,N,N′,N′ tetraacetate for the 0.1-1 μM Ca^++ range.

Molecule: CCCCCCO [1-hexanol]
inhibition of formation of lipid Z ester (TGase 1; up to 2% 1-hexanol): did not significantly (p=0.05) inhibit

Molecule: 16-hydroxypalmitoylsphingosine
involucrin-lipid adduct formation by TGase 1 on SLV membranes (TGase 1): no involucrin-adduct formation was observed

Molecule: palmitoylsphingosine
involucrin-lipid adduct formation by TGase 1 on SLV membranes (TGase 1): no involucrin-adduct formation was observed

Molecule: O=C(O)CN(CCN(CC(=O)O)CC(=O)O)CC(=O)O [EDTA]
inhibition of lipid Z esterification (TGase 1; EDTA present (5 mM elsewhere in the source)): no lipo-peptides were recovered; also recorded: completely inhibited | effect on Ca++-induced binding of involucrin to SLVs [1]: completely reversible

Molecule: NCCSSCCN [cystamine]
inhibition of lipid Z esterification (TGase 1; 20 mM cystamine): significantly reduced; also recorded: completely inhibited

B2: TGase 3: recombinant full-length human TGase 3, activated with dispase (protein, UniProt Q08188 1-693, looked up)
chain: MAALGVQSINWQTAFNRQAHHTDKFSSQELILRRGQNFQVLMIMNKGLGSNERLEFIVSTGPYPSESAMTKAVFPLSNGSSGGWSAVLQASNGNTLTISISSPASAPIGRYTMALQIFSQGGISSVKLGTFILLFNPWLNVDSVFMGNHAEREEYVQEDAGIIFVGSTNRIGMIGWNFGQFEEDILSICLSILDRSLNFRRDAATDVASRNDPKYVGRVLSAMINSNDDNGVLAGNWSGTYTGGRDPRSWNGSVEILKNWKKSGFSPVRYGQCWVFAGTLNTALRSLGIPSRVITNFNSAHDTDRNLSVDVYYDPMGNPLDKGSDSVWNFHVWNEGWFVRSDLGPSYGGWQVLDATPQERSQGVFQCGPASVIGVREGDVQLNFDMPFIFAEVNADRITWLYDNTTGKQWKNSVNSHTIGRYISTKAVGSNARMDVTDKYKYPEGSDQERQVFQKALGKLKPNTPFAATSSMGLETEEQEPSIIGKLKVAGMLAVGKEVNLVLLLKNLSRDTKTVTVNMTAWTIIYNGTLVHEVWKDSATMSLDPEEEAEHPIKISYAQYEKYLKSDNMIRITAVCKVPDESEVVVERDIILDNPTLTLEVLNEARVRKPVNVQMLFSNPLDEPVRDCVLMVEGSGLLLGNLKIDVPTLGPKEGSRVRFDILPSRSGTKQLLADFSCNKFPAIKAMLSIDVAE
modifications: full-length activated by dispase cleavage
binding to SLV [1]: unable to associate with an SLV of any composition tested

Further lines, with some results ahead:

effect on involucrin binding to SLV when substituted for PS [1]: did not enhance binding
Molecule: phosphatidyl inositol [reference compound]

effect on involucrin binding to SLV when substituted for PS [1]: did not enhance binding
Molecule: phosphatidyl glycerol [reference compound]

effect on Ca++-induced binding of involucrin to SLVs [1]: did not support the binding
Molecule: [Mg+2] [magnesium]

inhibition of ester formation of each reactive Gln residue (TGase 1; 1 mM putrescine included in the reaction): 2-3 fold
Molecule: NCCCCN [Putrescine, putrescine]
reduction in ester yields (TGase 1; 20 mM putrescine added at 45 min, compared to 1 h levels): significantly (p<0.01) reduced; also recorded: about a two-fold and time dependent reduction

effect on involucrin binding to SLV when substituted for PS [1]: did not enhance binding
Molecule: phosphatidic acid [reference compound]

effect on Ca++-induced binding of involucrin to SLVs [1]: completely reversible
Molecule: O=C(O)CN(CCOCCOCCN(CC(=O)O)CC(=O)O)CC(=O)O [EGTA, reference compound]

binding to SLV [1]: unable to directly attach to SLV
B1: loricrin: recombinant human CE protein (protein, UniProt P23490 1-312, looked up)
Loricrin: MSYQKKQPTPQPPVDCVKTSGGGGGGGGSGGGGCGFFGGGGSGGGSSGSGCGYSGGGGYSGGGCGGGSSGGGGGGGIGGCGGGSGGSVKYSGGGGSSGGGSGCFSSGGGGSGCFSSGGGGSSGGGSGCFSSGGGGSSGGGSGCFSSGGGGFSGQAVQCQSYGGVSSGGSSGGGSGCFSSGGGGGSVCGYSGGGSGCGGGSSGGSGSGYVSSQQVTQTSCAPQPSYGGGSSGGGGSGGSGCFSSGGGGGSSGCGGGSSGIGSGCIISGGGSVCGGGSSGGGGGGSSVGGSGSGKGVPICHQTQQKQAPTWPSK

Source: patent US6852686B2, “Methods for ameliorating icthyosiform skin diseases” (The United States of America as represented by the …, priority 1999, dated 2005)
